PMC5743599 (Antiviral research, 2017)

Assays:
[1] = Tolerability; format: in vivo, huFRG KO mice; details: for weight recovery after the treatment phase: primary study, post-treatment
[2] = Single and repeat dose maximum tolerated dose studies; format: in vivo, C57Bl/6 mice or huFRG KO mice
[3] = tested on: HBV genotype C; experiment: Primary efficacy study in HBV genotype C-infected huFRG KO mice; format: in vivo, hepatitis B virus
[4] = tested on: HBV genotype A; experiment: Pilot/preliminary efficacy study in HBV genotype A-infected huFRG KO mice; format: in vivo, hepatitis B virus
[5] = tested on: HBV; experiment: HBV transgenic mouse model; format: in vivo, hepatitis B virus; details: HBV transgenic mice, 100 mg/kg daily IP; data not shown
[6] = entecavir 1 mg/kg/day PO, Days 59-72, genotype C

| SMILES | deaths / moribundity in post-dosing phase of primary study ([1]; Day 87-88, one animal per group, not with certainty test article-related) | weight recovery after the treatment phase [1] | Dose-limiting toxicity ([2]; non-infected mice, IP) | maximum tolerated dose (MTD) ([2]; single and repeat IP injections up to seven days, male C57Bl/6 or huFRG KO mice) | decrease in HBV titers after one week compared to control mice ([3]; 100 mg/kg/day IP, genotype C) | decrease in HBV titers after two weeks of dosing compared to control mice ([3]; 100 mg/kg/day IP, genotype C) | suppression of HBV viremia (average) after one week ([4]; 50 and 100 mg/kg/day IP, Days 160-173, vs pretreatment Day 159, genotype A) | suppression of HBV viremia at week two ([4]; 50 and 100 mg/kg/day IP, surviving mice, genotype A) | decrease in HBV titers (trend) in pilot experiment ([4]; genotype A, #208 treated animals) | reduction of intrahepatic DNA accumulation [5] | reduction of serum viremia [5] | decrease in HBV titers after one week of treatment [3, 6] | decrease in HBV titers after two weeks [3, 6] | Viral titers rebounded to pretreatment levels by Day ([4]; after entecavir withdrawal (treatment days 71-84), genotype A) | drop in HBV titers more than the control animals ([4]; entecavir 1.0 mg/kg PO two weeks, Days 70 to 85, genotype A, plasma) |
| --- | --- | --- | --- | --- | --- | --- | --- | --- | --- | --- | --- | --- | --- | --- | --- |
| CC(=Nc1ccccc1N)c1c(C)cc(=O)n(O)c1O [#208] | found dead | some weight gain occurred | >10% weight loss, hypoactivity, unkempt appearance, feeling cool-to-touch, and distended abdomen | 100 mg/kg | 1.6 log | 1.4 log | 1.1 log | sustained | ~1 log | failed to reduce | failed to reduce |  |  |  |  |
| C=C1[C@H](CO)[C@@H](O)C[C@@H]1n1cnc2c(=O)[nH]c(N)nc21 [entecavir, Entecavir, reference compound] |  | some weight gain occurred |  |  |  |  |  |  |  |  |  | 2.6 log | 3.2 log | ≤ 159 days | 2.8 log |
